Results: US8383626B2, “Nitric oxide donors for inducing neurogenesis” (Henry Ford Health System, priority 1999, dated 2013)

What was measured:
[1] = test system: neuronal progenitor cells in the SVZ and the dentate gyrus; assay: Proliferation of neuronal progenitor cells (BrdU immunoreactive cell density) in non ischemic adult rats; type: in vivo, rat
Method: Two experiments were performed. In the first experiment, the effects of NO on the proliferation of neuronal progenitor cells in the SVZ and the dentate gyrus of non ischemic adult rats were examined. In the second experiment, the effects of NO on the proliferation of neuronal progenitor cells in the SVZ and in the dentate gyrus of ischemic adult rats were examined.
Male Wistar rats (n=28) weighing 300-350 g were anesthetized with halothane (1-3.5% in a mixture of 70% N2O and 30% O2) using a face mask. The rectal temperature was maintained at 37±1° C. throughout the surgical procedure using a feedback regulated water heating system. The right femoral artery and vein were cannulated with a PE-50 catheter for continuous monitoring of blood pressure and measurement of blood gases (pH, pO2, pCO2) and for drug administration, respectively. DETANONOate was intravenously and intraperitoneally injected to rats.
DETANONO treatment: Rats were randomly divided into four groups. Group 1 (single Rx), rats were intravenously injected with four consecutive bolus doses of DETANONO (0.1 mg/kg each) every fifteen minutes (total dose of 0.4 mg/kg). Group 2 (two Rx group), rats were intravenously injected with four consecutive bolus doses of DETANONO (0.1 mg/kg each) every fifteen minutes (total dose 0.4 mg/kg) and rats received a second treatment at 24 hours later. Group 3 (seven Rx group), rats received four consecutive intravenous bolus doses of DETANONO (0.1 mg/kg each) every fifteen minutes on the first experimental day and rats were intraperitoneally injected with a bolus dose of DETANONO (0.4 mg/kg) daily for an additional six consecutive days. Group 4 (control), rats received saline only (single dose).
Rats received an intraperitoneal injection of BrdU (50 mg/kg) on the first day of DETANONO treatment and daily intraperitoneal injections of BrdU for fourteen consecutive days. To determine whether the proliferation and the differentiation of cells in the SVZ and dentate gyrus of adult rats is affected by NO, rats were sacrificed at fourteen days (n=3-5 per group) and 42 days (n=3-5 per group) after first dose of DETANONO treatment, respectively. Rats were transcardially perfused with 4% paraformaldehyde in 100 mM phosphate buffer, pH 7.4. Brains were removed and fixed in 4% formaldehyde.
For BrdU immunostaining, DNA was first denatured by incubating brain sections (6 μm) in 50% formamide 2×SSC at 65° C. for 2 hours and then in 2N HCl at 37° C. for 30 minutes. Sections were then rinsed with Tris buffer and treated with 1% of H2O2 to block endogenous peroxidase. Sections were incubated with a primary antibody to BrdU (1:100) at room temperature for one hour and then incubated with biotinylated secondary antibody (1:200, Vector, Burlingame, Calif.) for one hour. Reaction product was detected using 3′3′-diaminobenzidine-tetrahydrochloride (DAB, Sigma).
BrdU immunostained sections were digitized under 40× objectively (Olympus BX40) via the MCID computer imaging analysis system (Imaging Research, St. Catharines, Canada). BrdU immunoreactive nuclei were counted on a computer monitor to improve visualization and in one focal plane to avoid over-sampling. Structures were sampled either by selecting predetermined areas on each section (RMS and OB) or by analyzing entire structures on each section (dentate gyrus and SVZ).
Every 40th coronal section was selected from each rat for a total of seven sections between AP+10.6 mm, genu corpus callosum, and AP+8.74 mm-anterior commissure crossing (Paxinos and Watson, 1986). BrdU immunoreactive-positive nuclei were counted in the lateral ventricle wall. All BrdU immunoreactive-positive nuclei in these areas are presented as the number of the BrdU immunoreactive cells/mm^2. Density for the seven sections was averaged to obtain a mean density value for each animal.
Every 20th section was selected from each rat for a total of six sections from the sagittal series of the OB/frontal cortex. […]

[2] = test system: focal embolic cerebral ischemic brain; assay: Ischemic lesion volume after embolic MCA occlusion; type: in vivo, rat; conditions: ischemic rats
Method: Male Wistar rats (n=30) weighing 300-350 g were subjected to middle cerebral artery (MCA) occlusion. The MCA was occluded by placement of an embolus at the origin of the MCA. Briefly, a single intact fibrin rich 24 hour old homologous clot (about 1 μl) was placed at the origin of the MCA via a fifteen mm length of modified PE-50 catheter. The experimental protocol consisted of four groups. In Group I (control group), rats were subjected to MCA occlusion and received four consecutive intravenous bolus doses of saline (0.52 ml each, every fifteen minutes) at 24 hours after ischemia. Group II (DETNO/NO precondition) rats received four consecutive intravenous bolus doses of DETANONO (0.1 mg/kg each, every fifteen minutes, and total dose 0.4 mg/kg) at 24 hours before embolization. Group III (DETANONO two set group), animals received consecutive intravenous bolus doses of DETANONO (0.1 mg/kg each, every fifteen minutes and total dose 0.4 mg/kg) at 24 and 48 hours after occlusion. Group IV (DETANONO seven set group), animals received four consecutive intravenous bolus doses of DETANONO (0.1 mg/kg each, every fifteen minutes and total dose 0.4 mg/kg) at 24 hours after embolization. Subsequently, rats were intraperitoneally injected with DETA/NO at 0.4 mg/kg every day for six consecutive days.

NCCN(CCN)/[N+]([O-])=N/O [DETANONO, DETANONOate]
Density of newborn cells, Olfactory bulb ([1]; ONCE, 4 weeks after last BrdU injection (42 d), Contralateral): 80 ± 12.3 cells per mm^2
Density of newborn cells, Olfactory bulb ([1]; ONCE, 4 weeks after last BrdU injection (42 d), Ipsilateral): 75.65 ± 10.85 cells per mm^2
Density of newborn cells, Rostral migratory stream ([1]; ONCE, 4 weeks after last BrdU injection, Left side): 26.25 ± 6.9 cells per mm^2
Density of newborn cells, Rostral migratory stream ([1]; ONCE, 4 weeks after last BrdU injection, Right side): 22.5 ± 5.95 cells per mm^2
Density of newborn cells, Olfactory bulb ([1]; ONCE, 1 day after last BrdU injection (14 d), Contralateral): 39.75 ± 6.2 cells per mm^2
Density of newborn cells, Olfactory bulb ([1]; ONCE, 1 day after last BrdU injection (14 d), Ipsilateral): 41.4 ± 5.55 cells per mm^2
Density of newborn cells, Rostral migratory stream ([1]; ONCE, 1 day after last BrdU injection (14 d), Left side): 998.55 ± 59.7 cells per mm^2
Density of newborn cells, Rostral migratory stream ([1]; ONCE, 1 day after last BrdU injection (14 d), Right side): 950.25 ± 99.55 cells per mm^2
Density of newborn cells, Olfactory bulb ([1]; TWICE, 4 weeks after last BrdU injection (42 d), Contralateral): 98.4 ± 19.95 cells per mm^2
Density of newborn cells, Olfactory bulb ([1]; TWICE, 4 weeks after last BrdU injection (42 d), Ipsilateral): 85 ± 15.95 cells per mm^2
Density of newborn cells, Rostral migratory stream ([1]; TWICE, 4 weeks after last BrdU injection, Left side): 37.8 ± 5.15 cells per mm^2
Density of newborn cells, Rostral migratory stream ([1]; TWICE, 4 weeks after last BrdU injection, Right side): 32.9 ± 8.15 cells per mm^2
Density of newborn cells, Olfactory bulb ([1]; TWICE, 1 day after last BrdU injection (14 d), Contralateral): 99.6 ± 10.5 cells per mm^2
Density of newborn cells, Olfactory bulb ([1]; TWICE, 1 day after last BrdU injection (14 d), Ipsilateral): 91.65 ± 12.35 cells per mm^2
Density of newborn cells, Rostral migratory stream ([1]; TWICE, 1 day after last BrdU injection (14 d), Left side): 1070.85 ± 160.1 cells per mm^2
Density of newborn cells, Rostral migratory stream ([1]; TWICE, 1 day after last BrdU injection (14 d), Right side): 991 ± 98.25 cells per mm^2
BrdU immunoreactive cells in OB ([1]; non ischemic rats, 42 days after a single set, fourteen and 42 days after two and seven sets, vs control): significant increases
number of BrdU immunoreactive cells in the SVZ, seven doses vs one and two doses ([1]; non ischemic rats, fourteen days after treatment): highest number of BrdU immunoreactive cells
numbers of BrdU immunoreactive cells in the RMS ([1]; non ischemic rats, fourteen days and 42 days after treatment): did not significantly increase
percentage of distribution of BrdU immunoreactive cells in the dentate gyrus ([1]; non ischemic rats, fourteen days and 42 days, vs control): significantly decreases percentage of BrdU immunoreactive cells in subgranular zone and significantly increases in the granule layers
numbers of BrdU immunoreactive cells in the dentate gyrus ([1]; non ischemic rats, single treatment, fourteen days and 42 days): did not significantly increase
numbers of BrdU immunoreactive cells in the dentate gyrus ([1]; non ischemic rats, two and seven sets, fourteen days and 42 days, vs control): significant (p<0.01) increases
numbers of BrdU immunoreactive cells in the SVZ ([1]; non ischemic rats, vs saline at fourteen days and 42 days after treatment): significant (p<0.05) increase
Density of newborn cells, Olfactory bulb ([1]; × 7 TIMES, 4 weeks after last BrdU injection (42 d), Contralateral): 100.65 ± 19 cells per mm^2
Density of newborn cells, Olfactory bulb ([1]; × 7 TIMES, 4 weeks after last BrdU injection (42 d), Ipsilateral): 84.4 ± 7.1 cells per mm^2
Density of newborn cells, Rostral migratory stream ([1]; × 7 TIMES, 4 weeks after last BrdU injection, Left side): 47.5 ± 15.6 cells per mm^2
Density of newborn cells, Rostral migratory stream ([1]; × 7 TIMES, 4 weeks after last BrdU injection, Right side): 45 ± 11.35 cells per mm^2
Density of newborn cells, Olfactory bulb ([1]; × 7 TIMES, 1 day after last BrdU injection (14 d), Contralateral): 116.55 ± 16.45 cells per mm^2
Density of newborn cells, Olfactory bulb ([1]; × 7 TIMES, 1 day after last BrdU injection (14 d), Ipsilateral): 106.25 ± 17.7 cells per mm^2
Density of newborn cells, Rostral migratory stream ([1]; × 7 TIMES, 1 day after last BrdU injection (14 d), Left side): 1312.5 ± 265 cells per mm^2
Density of newborn cells, Rostral migratory stream ([1]; × 7 TIMES, 1 day after last BrdU injection (14 d), Right side): 1169.4 ± 218.85 cells per mm^2
ischemic lesion volume [2]: did not exhibit a significant reduction
